For assay [1], the system named is Staphylococcus aureus. In words: Antibacterial activity against Staphylococcus aureus. It counts as functional.
The test system of assay [2] is Bacillus subtilis. As to the kind of experiment: Antibacterial activity against Bacillus subtilis. The class given is functional.
Assay [3] deals with Microsporum canis. As to the kind of experiment: Antifungal activity against Microsporum canis by serial microplate method. It counts as functional.
The test system of assay [4] is Staphylococcus aureus. In words: Antibacterial activity against […] Staphylococcus aureus ATCC 29213 by serial microplate method. The class given is functional.
Assay [5] deals with Meyerozyma guilliermondii. As to the kind of experiment: Antifungal activity against Candida guilliermondii by serial microplate method. The class given is functional.
The subject of assay [6] is Streptomyces scabiei. In words: Downregulation of tomA gene expression in Streptomyces scabiei CGMCC4.7610246 at 0.5 x MIC by Q-RT-PCR analysis relative to control. It counts as functional, organism-based.
Assay [7] concerns Streptomyces scabiei. As to the kind of experiment: Downregulation of p450 gene expression in Streptomyces scabiei CGMCC4.7610246 at 0.5 x MIC by Q-RT-PCR analysis relative to control. It counts as functional, organism-based.
Assay [8] has as its system Streptomyces scabiei. In words: Downregulation of necl gene expression in Streptomyces scabiei CGMCC4.7610246 at 0.5 x MIC by Q-RT-PCR analysis relative to control. The class given is functional, organism-based.
Assay [9] concerns Streptomyces scabiei. As to the kind of experiment: Antibacterial activity against Streptomyces scabiei CGMCC4.7610246 assessed as growth inhibition after 4 to 36 hrs. The class given is functional, organism-based.
In assay [10] the test system is Bacillus spizizenii. In words: Antibacterial activity against Bacillus subtilis ATCC 6633 assessed as growth inhibition after 24 hrs by turbidimetric analysis. Conditions: ATCC 6633, 24 h. It counts as functional.
Assay [11] concerns Streptomyces scabiei. In words: Downregulation of murX gene expression in Streptomyces scabiei CGMCC4.7610246 at 0.5 x MIC by Q-RT-PCR analysis relative to control. The class given is functional, organism-based.
The test system of assay [12] is Staphylococcus aureus. In words: Antibacterial activity against Staphylococcus aureus ATCC 25923 assessed as growth inhibition at 100 uM after 24 hrs by turbidimetric analysis. The class given is functional. Conditions: ATCC 25923, 24 h, read-out: GI.
The subject of assay [13] is Staphylococcus aureus. In words: Antibacterial activity against Staphylococcus aureus ATCC 25923 assessed as growth inhibition after 24 hrs by turbidimetric analysis. It counts as functional. Conditions: ATCC 25923, 24 h.
In assay [14] the test system is Streptomyces scabiei. As to the kind of experiment: Antibacterial activity against Streptomyces scabiei CGMCC4.7610246 assessed as killing time at 0.5 x MIC to 4 x MIC. The class given is functional.
The subject of assay [15] is Bacillus spizizenii. In words: Antibacterial activity against Bacillus subtilis ATCC 6633 assessed as growth inhibition at 100 uM after 24 hrs by turbidimetric analysis. It counts as functional. Conditions: ATCC 6633, 24 h, read-out: GI.
Assay [16] relates to Streptomyces scabiei. As to the kind of experiment: Downregulation of txtC gene expression in Streptomyces scabiei CGMCC4.7610246 at 0.5 x MIC by Q-RT-PCR analysis relative to control. It counts as functional, organism-based.
The test system of assay [17] is Streptomyces scabiei. As to the kind of experiment: Downregulation of txtA gene expression in Streptomyces scabiei CGMCC4.7610246 at 0.5 x MIC by Q-RT-PCR analysis relative to control. The class given is functional, organism-based.
Assay [18] relates to Streptomyces scabiei. In words: Antibacterial activity against Streptomyces scabiei CGMCC4.7610246 assessed as growth inhibition after 36 hrs by turbidimetric analysis. Conditions: CGMCC4.7610246, 36 h. The class given is functional.

Consider three compounds from ChEMBL document CHEMBL3414456, “Pentacyclic triterpene derivatives possessing polyhydroxyl ring A inhibit gram-positive bacteria growth by regulating metabolism and virulence genes expression” (2015).

Values after ≈ are worked out from the molar mass of the structure shown. Active and inactive are the calls of the source.

On to `CC1OC(OC[C@]2(C)[C@@H](O)[C@@H](O)[C@@H](O)[C@]3(C)[C@H]4CC=C5[C@@H]6[C@@H](C)[C@H](C)CC[C@]6(C)CC[C@@]5(C)[C@]4(C)CC[C@@H]23)C(O)C(O)C1O` (stereo partly drawn), for which the MIC was 31.3 µg/mL (≈ 50.4 µM) in assay [1] and 15.6 µg/mL (≈ 25.1 µM) in assay [2].
As for `C[C@H]1[C@H](C)CC[C@]2(C(=O)O)CC[C@]3(C)C(=CC[C@@H]4[C@@]5(C)C[C@@H](O)[C@H](O)C(C)(C)[C@@H]5CC[C@]43C)[C@H]12` [COROSOLIC ACID], the MIC came out at 8 µg/mL (≈ 16.9 µM) in assay [3], 7 µg/mL (≈ 14.8 µM) in [4] and 11.7 µg/mL (≈ 24.8 µM) in [5].
On to `COC(=O)[C@]12CCC(C)(C)C[C@H]1C1=CC[C@@H]3[C@@]4(C)[C@@H](O)[C@H](O)[C@H](O)C(C)(C)[C@@H]4CC[C@@]3(C)[C@]1(C)CC2`, for which the result in assay [6], in assay [7], in [8], in assay [11], in assay [16] and in assay [17] was Active. Moreover, in [9], the “growth inhibition (GI)” value is “Dose-dependent effect”. The MIC in assay [10] is 64 µM (≈ 32.2 µg/mL); in assay [13], at least 100 µM; in assay [18], 4 µM (≈ 2.01 µg/mL). The inhibition of growth at 100 µM in assay [12] and in assay [15] was over 95% in each case. Besides, the Time in assay [14] is over 24 h.

A word on the MIC: it is the smallest concentration in the dilution series that meets the test's criterion for growth inhibition.
